Tests used:
Assay type in all cases: cell-based, human
[1] = system: glioblastoma cell lines U87 and U251; experiment: Cell death after transfection of glioblastoma cell lines (chromatin condensation); settings: U87 and U251 cells transfected, normoxia
Protocol: (§1) Human glioblastoma cell lines U251 and U87 (obtained from Dr. V. W. Yong, University of Calgary and Dr. C. Hao, University of Alberta, respectively) were cultured in Dulbecco's modified essential medium (DMEM), supplemented with 10% fetal bovine serum, 2 mM L-glutamine, 1 mM MEM sodium pyruvate, 0.3% glucose and 100 units/mI penicillin/streptomycin. The cell lines were grown in a humidified incubator in the presence of 5% CO2 at 37° C. Cells were maintained under hypoxic conditions (less than 1% oxygen) at 37° C. within a hypoxic chamber (Forma Scientific) filled with 5% CO2 balanced with N2. Transfection experiments were carried out with the U87 and U251 cell lines. The cells were plated 48 hours prior to transfection to achieve approximately 40% confluence. The U87 cell line was transfected using Geneporter™ transfection reagent (GTS) and the U251 cell line using Effectene™ transfection reagent (Qiagen) as per the manufacturer's instructions.
After transfection of U87 and U251 cell lines with 2 μg of pCDNA3, pCDNA3-BNIP3, pCDNA3-BNIP3ΔTM, or pCDNA3-356delA BNIP3, the cells were incubated for 24 and 48 hours, then trypsinized and centrifuged and then resuspended in 2 ml of media. A 200 μl aliquot was placed in a ThermoShandon cytospin at 1000 RPM for 5 minutes with medium-low acceleration. The slides obtained from the cytospin were immediately fixed with 3.7% formaldelyde in 1×PBS at RT for one hour. Following three washes with 1' PBS (0.1% NP40), slides were incubated with primary BNIP3 antibody (1:700 dilution in […], 1×PBS, 0.1% NP40) for 1 hour at RT. The slides were then washed three times in PBS (0.1% NP40) and incubated with goat anti-rabbit fluorescein isothiocyanate (FITC)-conjugated secondary antibody (Sigma) for 1 hour. […] 200 or more cells were counted per sample to assess DNA condensation. Fluorescence was visualized and captured using an Olympus BX51 fluorescent microscope with a Photometrics Cool Snap CF camera and an Olympus IX70 inverted confocal laser microscope using Fluoview 2.0 software.

U251 cells [2] = experiment: Determination of mitochondrial membrane potential (TMRM staining) in transfected U251 cells; settings: U251 cells co-transfected with GFP
Protocol: U251 cells were grown in chamber slides and were co-transfected with pEGFP N1 (Clontech) and pCDNA3, pCDNA3-BNIP3, pCDNA3-BNIP3ΔTM, and pCDNA3-356delA BNIP3 using Geneporter™ transfection reagent (GTS) as per the manufacturer's instructions. After 16 h of incubation, the slides were washed twice with 1×Hepes-buffered saline solution (HBSS) and tetramethylrohdamine (TMRM; Molecular Probes) was added to the slides at […] final concentration and incubated in the dark at RT for 10 min. The slides were then viewed on an Olympus IX70 inverted confocal laser microscope using Fluoview 2.0 software.

BNIP3 = experiment: Antisense experiment: BNIP3 expression in U87 cells under hypoxia (Western blot); settings: hypoxia 72 hrs
Protocol: U251 cells were lysed for total protein or nuclear proteins as previously published (5). The lysates ([…]) were separated by SDS-PAGE and transferred to nitrocellulose membranes. Membranes were blocked in 5% skim milk and western blotted with monoclonal antibodies against BNIP3 (1:1000) (5), pro-caspase 8 antibodies (1:1000, Upstate Biotech.), HDAC1 antibodies (1:1000, Upstate Biotech),) or β-actin (1:50, Sigma). The western blots were visualized with chemiluminescence (NEN-Dupont).
(§2) Antisense oligonucleotide (5′-[…]-3′ (SEQ ID NO:13)) (Sigma Genesys, Oakville, ON) and sense oligonucleotide (5′-[…]-3′ (SEQ ID NO:14)) were complimentary to bases −1 to +19 of the human Bnip3 gene. Random sequence oligonucleotide (5′-GCAGTCAGCGACGTCGMGC-3′ (SEQ ID NO:15)) contained the same bases in a scrambled sequence. Oligonucleotides were phosphorothioate-modified to prevent degradation. Oligonucleotides were diluted in Opti-MEM (Gibco BRL), mixed with oligofectamine (Invitrogen) and incubated with U87 cells for 4 hours then hypoxic media was added and cells were further incubated under hypoxia for 72 hours. Cell death was determined via acridine orange staining or cells were lysed and protein extracts were analyzed for BNIP3 expression as described above.

U87 cells = experiment: Antisense experiment: hypoxia-induced cell death in U87 cells (acridine orange staining); settings: hypoxia 72 hours
Protocol: U251 and U87 cells were plated on 100 mm plates and grown to approximately 80% confluence, then incubated in hypoxic conditions for a time course of 0, 24, 48, 72 and 96 hours. Following incubation under hypoxia, the cells were trypsinized from the plates and centrifuged to collect a cell pellet. Cells were resuspended in 100 μl of media and 4 μl of acridine orange (100 μg/ml) and ethidium bromide (100 μg/ml) were added. A 10 μl aliquot was removed, placed on a microscope slide and a coverslip was applied. Using a fluorescein filter, the percentage of dead cells was determined by counting the number of DNA condensation nuclei. At least 200 cells were counted per sample as previously described (5).
as §2, with “Oligonucleotides were diluted in Opti-MEM (Gibco BRL), mixed with oligofectamine (Invitrogen) and incubated with U87 cells for 4 hours then hypoxic media was added and cells were further incubated under hypoxia for 72 hours.” left out

U251 cells [3] = experiment: Hypoxia-induced cell death in transfected U251 cells (β-galactosidase viability assay)
Protocol: as §1
U87 and U251 cells were co-transfected in 100 mm culture plates with 2 μg of pcDNA3, pcDNA3-BNIP3, pcDNA3-BNIP3ΔTM, pcDNA3-356delA BNIP3 plasmid DNA and 0.5 μg of β-galactosidase reporter plasmid DNA. […] The percentage of dead cells was calculated by assessing the number of rounded, condensed, blue-staining cells in the total population of flat, blue-staining cells. At least 200 cells were counted for each experiment.

Row | Molecule | induction of cell death [1] | TMRM staining (mitochondrial membrane potential, Δψm) (U251 cells [2]) | BNIP3 expression (BNIP3) | hypoxia-induced cell death (U87 cells) | cell death (U251 cells [3]; U251 cells transfected with cDNA, hypoxic conditions 72 hours, vector alone 40%, normoxia 10%) [%] | reduction of cell death versus vector alone (U251 cells [3]; U251 cells, hypoxic conditions) [%]
1 | 235—236insA BNIP3: truncated BNIP3, frame shift in the PEST domain by insertion of A at nucleotide 236 (SEQ ID NO:5, protein SEQ ID NO:6) | failed to induce cell death | – | – | – | – | –
2 | wt BNIP3: wild-type Bcl-2 Nineteen Kilodalton Interacting Protein 3 (SEQ ID NO:2), expressed from transfected cDNA | inducing cell death | TMRM staining decreased | – | – | – | –
3 | 5′-GCGCTCCGTTCTGCGACATG-3′ (SEQ ID NO:13) (listed as DNA, chemistry not given here) [antisense oligonucleotides against BNIP3, antisense oligonucleotide to bases −1 to +19 of the human Bnip3 gene] | – | – | effectively blocks BNIP3 expression | inhibited hypoxia-induced cell death | – | –
4 | 356delA BNIP3: truncated BNIP3, frame shift in the CD domain by deletion of A at nucleotide 356 (SEQ ID NO:3, protein SEQ ID NO:4) (protein, listed as Homo sapiens) MSQNGAPGMQEESLQGSWVELHFSNNGNGGSVPASVSIYNGDMEKILLDAQHESGRSSSKSSHCDSPPRSQTPQDTNRASETDTHSIGEKNSSQSEEDDIERRKEVESILKKNSDWIWVGQVGRKIFPPRSSSLNTRSARPPSA | fails to induce cell death | failed to change TMRM fluorescence | – | – | 20 | 50

Source: patent US7393637B2, “Methods for detecting cancer and monitoring cancer progression” (University of Manitoba, priority 2003, dated 2008)
